Article PMC8476055, “Synthesis and Biological Activity of Triterpene–Coumarin Conjugates” (Journal of Natural Products, 2021)

Legend:
[1] = system: Hep G2 cells; assay: Mitochondrial-membrane potential (Rh123) flow cytometry, Hep G2; format: cell-based, human; details: Hep G2, 72 h at IC50 concentration
Procedure: The study of the loss of the mitochondrial-membrane potential (MMP) of tumor cells, when treated with drugs, can provide information on the activation mechanism of apoptosis. This activation can occur extrinsically when MMP is not altered, and intrinsically when a loss of this potential is caused by mitochondrial disruption. […] The values of percentage of cell population were expressed as means ± SEM of at least two experiments in duplicate. Changes in MMP were analyzed by monitoring cell fluorescence after staining with rhodamine 123 (Rh123).
The electrochemical gradient across the mitochondrial membrane was examined by analytical flow cytometry, using dihydrorhodamine (DHR), which in contact with living cells, oxidized to form highly fluorescent rhodamine 123 (Rh123). The fluorescence emitted can be monitored by fluorescence spectroscopy using excitation and emission wavelengths of 500 and 536 nm, respectively. […] Following treatment, the culture medium was renewed with fresh medium by adding 0.5 mL of DHR, for a final concentration of […]. Cells were incubated for 1 h at 37 °C in an atmosphere of 5% CO2 and 95% humidity and subsequently washed and resuspended in PBS. The fluorescence intensity was measured using a FACScan flow cytometer (fluorescence-activated cell sorter). The experiments were performed three times with two replicates per assay.

[2] = system: Hep G2 human hepatocyte carcinoma cells; assay: MTT cell proliferation assay, Hep G2 cells; format: cell-based; details: HepG2, 72 h treatment, untreated control = 100% viability, read-out: IC50, growth inhibition of Hep G2 cells
Procedure: These studies were performed using a 3-(4,5-dimethylthiazol-2-yl)-2,5-diphenyltetrazolium bromide (MTT) assay, with increasing concentration levels of each compound (0–200 μg/mL). Cell viability was determined after treatment for 72 h, by absorption of a formazan dye.
[…] ATTC HTB-38), Hep G2 human hepatocyte carcinoma cells (ECACC 85011430), nontumor human epithelial lung fibroblast cells HPF (ScienCell catalog (cat.) no. 3300), nontumor rat ileum cells IEC-18 (ECACC no. 88011801), and nontumor human embryo liver cells (ECACC 89121403) were cultured in DMEM medium supplemented with 2 mM glutamine, 10% heat-inactivated fetal bovine serum (FCS), 10.000 units/mL penicillin, and […]. These cells were incubated at 37 °C in an atmosphere of 5% CO2 and 95% humidity. The culture media were changed every 48 h, and the confluent cultures were separated with a trypsin solution (0.25% EDTA). Subconfluent monolayer cells were used in all experiments. All cell lines used were provided by the cell bank of the University of Granada (Spain).
The effect of the synthesized compounds on the viability of tumor cells was assessed using an MTT assay, based on the ability of living cells to cleave the tetrazolium ring, thus producing formazan, which absorbs at 570 nm. […] For an evaluation of the cytotoxic effects of these compounds, the cells were seeded in 96-well plates at an initial density of 5 × 10^3 B16–F10 cells, 6 × 10^3 HT29 cells, 15 × 10^3 Hep G2 cells, 8 × 10^3 HPF cells, 15 × 10^3 IEC-18 cells, and 11 × 10^3 WRL68 cells, per well. After incubation for 24 h, the cells were treated with the synthesized compounds in triplicate, at different concentrations (0–200 μg/mL), and incubated for 72 h. Thereafter, 100 μL of MTT solution (0.5 mg/mL) were added to each well. After 2 h of incubation, the cells were washed twice with phosphate buffered saline (PBS), and the formazan was resuspended in 100 μL of DMSO. Relative cell viability, with respect to untreated control cells, was measured by absorbance at 550 nm on an ELISA plate reader (Tecan Sunrise MR20-301, TECAN, Austria). […] These experiments were measured and compared to the control after 72 h of treatment.

[3] = system: HT29 cells; assay: Cell-cycle distribution by PI flow cytometry, HT29; format: cell-based, human; details: HT29, 72 h at IC50 concentration
Procedure: (§1) Based on the cytotoxicity shown by derivatives 1, 4, 7, and 10, a study was made concerning their effects on the distribution of the cell cycle in order to determine possible cytostatic effects caused by the cytotoxic response. The percentages of cells in the different phases of the cycle were analyzed at 72 h, by the incorporation of propidium iodide. […] The values of cell percentage were expressed as means ± SEM of at least two independent experiments performed in triplicate. Flow cytometry was also used to measure DNA ploidy and alterations in cell-cycle profiles. The DNA content is proportional to the fluorescence of propidium iodide, enabling the percentage of cells to be determined in each phase of the cycle and the cell subpopulations with different DNA contents to be visualized.
(§2) The method used to quantify the amount of DNA in the different phases of the cell cycle (G0/G1, S, and G2/M) was performed by flow cytometry, using a fluorescence-activated cell sorter (FACS) at 488 nm in an Epics XL flow cytometer (Coulter Corporation, Hialeah, FL, USA). For this assay, 5 × 10^4 B16–F10, 6 × 10^4 HT29 cells, and 15 × 10^4 Hep G2 cells were placed in 24-well plates with 1.5 mL of medium and incubated for 24 h. After this time, the cells were treated with the different selected compounds for 72 h at their corresponding IC50 concentrations. After treatment, the cells were washed twice with PBS, trypsinized, and resuspended in 1X TBS (10 mM Tris and 150 mM NaCl); thereafter, Vindelov buffer (100 mM Tris, 100 mM NaCl, 10 mg/mL Rnase, and 1 mg/mL PI, at pH 8) was added. Cells were stored on ice and, just before measurement, were stained with 10 μL of 1 mg/mL PI solution. Approximately, 10 × 10^3 cells were analyzed in each experiment. The experiments were performed three times with two replicates per assay.

[4] = system: B16–F10 cells; assay: Cell-cycle distribution by PI flow cytometry, B16–F10; format: cell-based, murine; details: B16–F10, 72 h at IC50 concentration
Procedure: as §1, §2

| SMILES | Rh123 staining (mitochondrial-membrane potential) [1] | IC50 [2] [µM] | percentage of cells in the G0/G1 phase [3] | percentage of cells in the G0/G1 phase [4] |
| --- | --- | --- | --- | --- |
| CC1(C)CC[C@]2(C(=O)NCCCNC(=O)c3cc4ccccc4oc3=O)CC[C@]3(C)C(=CC[C@@H]4[C@@]5(C)C[C@@H](O)[C@H](O)C(C)(C)[C@@H]5CC[C@]43C)[C@@H]2C1 [Compound 1, 2α,3β-Dihydroxy-N-(3′-(2″-oxo-2″H-chromene-3″-carboxamido)propyl)olean-12-en-28-amide] | negative Rh123 staining | > 10 |  |  |
| CC1(C)CC[C@]2(C(=O)NCCCNC(=O)Cc3cc(=O)oc4cc(O)ccc34)CC[C@]3(C)C(=CC[C@@H]4[C@@]5(C)C[C@@H](O)[C@H](O)C(C)(C)[C@@H]5CC[C@]43C)[C@@H]2C1 [Compound 4, 2α,3β-Dihydroxy-N-(3′-(2″-(7‴-hydroxy-2‴-oxo-2‴H-chromen-4‴-yl)acetamido)propyl)olean-12-en-28-amide] | negative Rh123 staining | > 10 | greater than 70% | greater than 70% |
| CC1(C)CC[C@]2(C(=O)NCCCNC(=O)/C=C/c3ccc(O)cc3)CC[C@]3(C)C(=CC[C@@H]4[C@@]5(C)C[C@@H](O)[C@H](O)C(C)(C)[C@@H]5CC[C@]43C)[C@@H]2C1 [Compound 7, 2α,3β-Dihydroxy-N-(3′-((E)-3″-(4‴-hydroxyphenyl)acrylamido)propyl)olean-12-en-28-amide] |  | 8.8 ± 0.4 | greater than 70% | greater than 70% |
| CC1(C)CC[C@]2(C(=O)O)CC[C@]3(C)C(=CC[C@@H]4[C@@]5(C)C[C@@H](OC(=O)c6cc7ccccc7oc6=O)[C@H](OC(=O)c6cc7ccccc7oc6=O)C(C)(C)[C@@H]5CC[C@]43C)[C@@H]2C1 [Compound 10] | negative Rh123 staining | 0.9 | greater than 70% | greater than 70% |
